Holding throughout (assay type): biochemical
Test [1] addresses T1, chicken egg white lysozyme (Gallus gallus, UniProt P00698).
T1 construct: chicken egg white lysozyme [Sigma]; purchased Sigma; host or cells: egg white
The test can be described thus: Lysozyme aggregation (turbidity at 360 nm) induced by DTT. The settings on record: Lysozyme 0.4 mg/mL, 25° C., DTT; compound 1,000×; standard deviation in parenthesis. Summed up:
(§1)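 Aggregation is scored as optical density at 360 nm over 1 h relative to untreated protein. Porcine somatotropin (1.27 mg/mL) is heated to 60° C in PEG 8000 (20 mg/mL); ADH (1 mg/mL) is oxidized with 7.76E-5 M Cu(OP)2 at 37° C; lysozyme and HLF (0.4 mg/mL) are reduced with 1.27E-4 M DTT at 25° C and 43° C.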

Test [2] deals with T2, porcine heart citrate synthase (CS) (Sus scrofa, UniProt P00889).
T2 construct: porcine heart citrate synthase (CS); from tissue; host or cells: porcine heart
T2 sequence (P00889 28-464): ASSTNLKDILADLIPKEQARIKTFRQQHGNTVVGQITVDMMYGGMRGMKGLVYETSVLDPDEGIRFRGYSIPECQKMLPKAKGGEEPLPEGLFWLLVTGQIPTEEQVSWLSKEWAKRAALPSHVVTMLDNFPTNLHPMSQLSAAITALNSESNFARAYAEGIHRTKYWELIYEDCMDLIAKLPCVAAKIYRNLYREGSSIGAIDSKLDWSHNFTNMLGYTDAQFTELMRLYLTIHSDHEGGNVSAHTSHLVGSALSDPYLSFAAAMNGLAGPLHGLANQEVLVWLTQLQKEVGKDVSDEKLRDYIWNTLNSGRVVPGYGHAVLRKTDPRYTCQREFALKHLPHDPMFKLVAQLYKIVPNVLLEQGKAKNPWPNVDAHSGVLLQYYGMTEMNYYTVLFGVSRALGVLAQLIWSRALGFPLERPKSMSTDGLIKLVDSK
The experiment in a line: Citrate synthase thermal aggregation (turbidity at 360 nm). The settings on record: for inhibition index: CS 96 μg/mL, 45° C., standard deviation in parenthesis. Summed up: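 Additive effects on thermal aggregation were read from the steepest slope of OD360-versus-time curves recorded over 1 h and referenced to additive-free protein. FGF-1 (50 μg/mL, phosphate/NaCl pH 7.2) was stressed at 50° C; citrate synthase (96 μg/mL, HEPES/KCl pH 7.8) at 45° C.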

The target of test [3] is T3, bovine alpha-lactalbumin (Bos taurus, UniProt P00711).
T3 construct: purchased Sigma
T3 sequence (P00711 20-142): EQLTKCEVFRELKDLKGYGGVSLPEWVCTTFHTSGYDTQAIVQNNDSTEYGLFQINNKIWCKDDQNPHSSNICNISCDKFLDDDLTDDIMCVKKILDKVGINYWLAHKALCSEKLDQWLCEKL
The experiment in a line: Alpha-lactalbumin aggregation (turbidity at 360 nm) induced by DTT. The settings on record: α Lactalbumin 0.4 mg/mL, 37° C., DTT; compound 1,000×; standard deviation in parenthesis. In a few lines:
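Turbidity at 360 nm was recorded for 1 hour at 37° C. in 1 cm cuvettes in a thermostatted seven-position holder cycled every 30 seconds, or in a 96-well microtiter plate reader. After stirring, alpha-lactalbumin (0.4 mg/mL) was added, then DTT. OD360nm versus time data were analyzed in Excel relative to compound-free controls.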

The target in test [4] is T4, human apolactoferrin (HLF) (Homo sapiens, UniProt P02788).
T4 construct: purchased Sigma
T4 sequence (P02788 20-710): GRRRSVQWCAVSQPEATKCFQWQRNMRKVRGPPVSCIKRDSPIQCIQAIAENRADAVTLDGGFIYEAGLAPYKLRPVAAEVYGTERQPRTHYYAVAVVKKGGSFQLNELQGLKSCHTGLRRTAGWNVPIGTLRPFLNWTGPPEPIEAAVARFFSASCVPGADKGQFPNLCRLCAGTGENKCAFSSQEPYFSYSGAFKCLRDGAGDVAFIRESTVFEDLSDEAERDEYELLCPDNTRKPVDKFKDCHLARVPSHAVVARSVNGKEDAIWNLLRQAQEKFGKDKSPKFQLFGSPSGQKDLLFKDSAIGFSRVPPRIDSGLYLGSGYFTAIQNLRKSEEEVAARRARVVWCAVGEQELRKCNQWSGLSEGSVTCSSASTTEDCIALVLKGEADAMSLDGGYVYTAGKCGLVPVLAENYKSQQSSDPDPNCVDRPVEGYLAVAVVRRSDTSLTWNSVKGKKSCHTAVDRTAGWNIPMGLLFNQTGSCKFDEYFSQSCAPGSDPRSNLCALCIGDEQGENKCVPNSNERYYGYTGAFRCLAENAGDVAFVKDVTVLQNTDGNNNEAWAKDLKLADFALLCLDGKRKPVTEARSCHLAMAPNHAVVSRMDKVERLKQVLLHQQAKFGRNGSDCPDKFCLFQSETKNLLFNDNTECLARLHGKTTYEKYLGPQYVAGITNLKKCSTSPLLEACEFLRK
The test can be described thus: HLF aggregation (turbidity at 360 nm) induced by DTT. Conditions: HLF 0.4 mg/mL, 43° C., DTT, head 10,000×, standard deviation in parenthesis. Summed up: as §1

T1 sequence (P00698 19-147): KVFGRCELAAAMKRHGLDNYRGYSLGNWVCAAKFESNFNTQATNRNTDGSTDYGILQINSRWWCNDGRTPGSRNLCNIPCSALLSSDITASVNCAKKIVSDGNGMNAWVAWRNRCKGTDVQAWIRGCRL

Consider Glu-Glu, for which the inhibition index in test [1] was 1.2 (0.7); in test [2] (compound 1,000X), 0.8 (0.1); in test [2] (compound 10,000X) it was 1.5 (0.1); in test [2] (compound 50,000X), 1430.3; in test [3] it was 1.0 (0.1); in test [4] (first HLF column), 9.8 (0.8). Further, the inhibition index in test [4] (second HLF column) worked out at 2.1. Moreover, in test [2], the “inhibition of citrate synthase aggregation, in words” value was “Potent inhibitors”.
With `O=C(O)CCCC(=O)O` [glutarate, glutaric acid], the inhibition index in test [1] is 1.2 (0.3); in test [2] (compound 10,000X), 1.4 (0.5); in test [2] (compound 50,000X) it was 6.5 (0.3); in test [3] it was 1.1 (0.2); in test [4] (second HLF column), 49.7 (28.9).

The values above are taken from patent publication US20030125234A1, “Alteration of protein stability” (priority 2001, published 2003).
